Patent publication US7291609B2, “Specific glucocorticosteroid compound having anti-inflammatory activity” (Glaxo Group Limited, priority 2003, dated 2007)

Assays:
Format in all cases: cell-based
glucocorticoid receptor [1] = target: T1, glucocorticoid receptor (Homo sapiens, UniProt P04150); assay: NF-κB transrepression reporter assay (ELAM promoter-sPAP) in A549 cells; conditions: compound 1 hour at 37° C., then TNF 10 ng/ml for 16 hours, read-out: EC50 (transrepressive activity)
T1 construct: A549 cells stably transfected with a reporter gene; endogenous in cells; host or cells: A549 cells (stably transfected with a reporter gene only)
T1 sequence (P04150 1-777): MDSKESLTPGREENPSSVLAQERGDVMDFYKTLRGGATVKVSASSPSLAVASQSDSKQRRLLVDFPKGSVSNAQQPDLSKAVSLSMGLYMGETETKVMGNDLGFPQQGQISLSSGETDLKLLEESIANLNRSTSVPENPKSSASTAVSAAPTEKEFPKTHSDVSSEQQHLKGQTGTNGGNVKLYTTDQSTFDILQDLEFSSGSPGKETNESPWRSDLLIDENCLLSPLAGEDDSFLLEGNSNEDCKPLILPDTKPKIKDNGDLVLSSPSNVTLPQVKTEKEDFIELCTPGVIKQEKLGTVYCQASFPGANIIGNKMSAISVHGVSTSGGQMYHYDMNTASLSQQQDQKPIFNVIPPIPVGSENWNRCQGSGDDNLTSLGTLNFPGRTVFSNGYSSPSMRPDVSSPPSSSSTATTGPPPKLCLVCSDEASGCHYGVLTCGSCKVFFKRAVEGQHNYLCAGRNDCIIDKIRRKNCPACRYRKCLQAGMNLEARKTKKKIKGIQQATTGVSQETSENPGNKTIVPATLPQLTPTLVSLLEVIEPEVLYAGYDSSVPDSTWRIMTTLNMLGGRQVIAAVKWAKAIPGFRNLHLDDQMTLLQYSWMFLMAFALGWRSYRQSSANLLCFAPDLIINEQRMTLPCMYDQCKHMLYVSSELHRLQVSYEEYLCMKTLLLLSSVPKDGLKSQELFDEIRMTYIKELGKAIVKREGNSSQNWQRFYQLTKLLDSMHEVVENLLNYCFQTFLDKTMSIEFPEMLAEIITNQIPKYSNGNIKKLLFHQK
Method: The functional assay based on that described by K. P. Ray et al., Biochem J. (1997), 328, 707-715 provides a measure of transrepressive activity of a glucocorticoid agonist. A549 cells stably transfected with a reporter gene containing the NF-κB responsive elements from the ELAM gene promoter coupled to sPAP (secreted alkaline phosphatase) are treated with test compounds at appropriate doses for 1 hour at 37° C. The cells are then stimulated with tumour necrosis factor (TNF, 10 ng/ml) for 16 hours, at which time the amount of alkaline phosphatase produced is measured by a standard colourimetric assay. Dose response curves are constructed from which EC50 values may be estimated.

glucocorticoid receptor [2] = target: T1, glucocorticoid receptor; assay: MMTV-LTR renilla luciferase transactivation reporter assay in A549 cells; conditions: 6 hour at 37° C., read-out: maximal response relative to Dexamethasone (100%)
Method: The functional assay based on that described by R. J. H. Austin et al., Eur Resp J. (2002), 20, 1386-1392 measures the ability of compounds to directly transactivate gene expression. A549 cells stably transfected with a reporter gene containing the glucocorticoid responsive region of the mouse mammary tumour virus long terminal repeat (MMTV-LTR) coupled to renilla luciferase were treated with test compounds at appropriate doses for 6 hour at 37° C. The amount of luciferase activity present within the cells is then determined by measuring the light emitted following incubation with a suitable substrate.

Progesterone Receptor = target: T2, Progesterone Receptor (Homo sapiens, UniProt P06401); assay: Assay for progesterone receptor activity (alkaline phosphatase in T47D cells); conditions: T47D human breast cancer cells, 24 hours at 37° C.; read-out: EC50 (alkaline phosphatase upregulation)
T2 construct: T47D cells were seeded into 96 well plates; endogenous in cells; host or cells: T47D human breast cancer cells
T2 sequence (P06401 1-933): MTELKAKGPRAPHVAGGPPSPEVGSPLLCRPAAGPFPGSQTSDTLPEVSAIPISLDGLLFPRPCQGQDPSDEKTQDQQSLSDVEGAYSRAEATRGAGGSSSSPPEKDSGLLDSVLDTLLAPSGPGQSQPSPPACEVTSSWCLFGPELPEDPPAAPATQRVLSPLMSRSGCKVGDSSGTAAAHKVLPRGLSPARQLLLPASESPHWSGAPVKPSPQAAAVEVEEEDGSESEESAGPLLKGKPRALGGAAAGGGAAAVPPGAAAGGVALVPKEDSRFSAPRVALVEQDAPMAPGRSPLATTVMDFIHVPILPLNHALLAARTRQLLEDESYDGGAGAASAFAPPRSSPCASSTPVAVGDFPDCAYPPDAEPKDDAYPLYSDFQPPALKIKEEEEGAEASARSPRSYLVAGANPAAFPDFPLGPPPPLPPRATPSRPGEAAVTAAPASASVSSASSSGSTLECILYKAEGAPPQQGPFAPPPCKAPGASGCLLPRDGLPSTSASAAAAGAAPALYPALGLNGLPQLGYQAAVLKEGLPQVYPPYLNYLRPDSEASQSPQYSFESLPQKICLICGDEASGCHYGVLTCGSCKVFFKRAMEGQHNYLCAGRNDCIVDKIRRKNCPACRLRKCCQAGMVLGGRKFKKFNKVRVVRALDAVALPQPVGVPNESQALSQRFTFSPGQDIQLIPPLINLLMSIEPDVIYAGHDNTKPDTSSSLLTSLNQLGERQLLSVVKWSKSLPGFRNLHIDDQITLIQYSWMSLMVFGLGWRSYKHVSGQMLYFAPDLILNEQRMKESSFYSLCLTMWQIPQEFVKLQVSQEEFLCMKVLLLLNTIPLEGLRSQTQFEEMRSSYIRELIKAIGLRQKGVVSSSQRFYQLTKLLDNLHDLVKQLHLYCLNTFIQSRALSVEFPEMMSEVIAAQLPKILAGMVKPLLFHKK

EC50 (glucocorticoid receptor [1]): < 0.1 nM | Emax (glucocorticoid receptor [2]): < 5% | EC50 (Progesterone Receptor): > 100 nM
Compound: C[C@@H]1C[C@H]2[C@@H]3C[C@H](F)C4=CC(=O)C=C[C@]4(C)[C@@]3(F)[C@@H](O)C[C@]2(C)[C@@]1(OC(=O)C1C(C)(C)C1(C)C)C(=O)OCC#N [Example 1, 6α,9α-Difluoro-11β-hydroxy-16α-methyl-3-oxo-17α-(2,2,3,3-tetramethycyclopropylcarbonyl)oxy-androsta-1,4-diene-17β-carboxylic acid cyanomethyl ester]
